Measurements taken from patent US20260256925A1, “INDAZOLE DERIVATIVES AS ESTROGEN RECEPTOR DEGRADERS” (REGENTS OF THE UNIVERSITY OF MICHIGAN, priority 2022, published 2026).

biological target: T1, ER (Homo sapiens, UniProt P03372); assay: Western blot analysis (compounds B1-B126); type: cell-based; conditions: ER degradation, read-out: Traditional Western Degradation potency (DC50)
T1 construct: endogenous in cells; probably T47D or MCF-7
T1 sequence (P03372 1-595): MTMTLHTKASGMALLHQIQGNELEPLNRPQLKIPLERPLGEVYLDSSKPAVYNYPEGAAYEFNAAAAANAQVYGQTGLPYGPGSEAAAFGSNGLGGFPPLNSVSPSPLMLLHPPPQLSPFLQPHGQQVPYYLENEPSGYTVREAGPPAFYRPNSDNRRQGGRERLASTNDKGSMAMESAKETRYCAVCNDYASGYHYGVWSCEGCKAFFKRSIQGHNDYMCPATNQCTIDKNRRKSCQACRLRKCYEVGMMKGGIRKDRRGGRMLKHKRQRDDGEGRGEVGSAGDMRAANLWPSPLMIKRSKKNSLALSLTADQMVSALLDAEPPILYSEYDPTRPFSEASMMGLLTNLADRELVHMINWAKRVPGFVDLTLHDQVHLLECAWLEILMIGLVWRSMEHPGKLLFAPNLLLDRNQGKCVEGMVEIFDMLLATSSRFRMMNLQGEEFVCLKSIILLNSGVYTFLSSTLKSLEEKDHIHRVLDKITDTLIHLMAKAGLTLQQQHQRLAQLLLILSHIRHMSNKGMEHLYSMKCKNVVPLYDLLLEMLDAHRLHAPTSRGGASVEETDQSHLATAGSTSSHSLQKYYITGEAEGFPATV
Procedure: Western Blot Analysis. The cells that are treated with the compounds are lysed in Radioimmunoprecipitation Assay Protein Lysis and Extraction Buffer (e.g., 25 mmol/L Tris.HCl, pH 7.6, 150 mmol/L NaCl, 1% Nonidet P-40, 1% sodium deoxycholate, and 0.1% sodium dodecyl sulfate) containing proteinase inhibitor cocktail. Equal amounts of total protein are electrophoresed through 10% SDS-polyacrylamide gels after determination of protein concentration by BCA assay. The separated protein bands are transferred onto PVDF membranes and blotted against different antibodies. The blots are scanned, and the band intensities are quantified (e.g., by using GelQuant.NET software provided by biochemlabsolutions.com). The relative mean intensity of target proteins is expressed after normalization to the intensity of glyceraldehyde-3-phosphate dehydrogenase bands.
Western Blot Analysis. Western blot analysis was performed essentially as described previously. The cells treated with indicated compounds were lysed in Radioimmunoprecipitation Assay Protein Lysis and Extraction Buffer (25 mmol/L Tris.HCl, pH 7.6, 150 mmol/L NaCl, 1% Nonidet P-40, 1% sodium deoxycholate, and 0.1% sodium dodecyl sulfate) containing proteinase inhibitor cocktail (Roche Diagnostics, Mannheim, Germany). Equal amounts of total protein were electrophoresed through 10% SDS-polyacrylamide gels after determination of protein concentration by BCA assay (Fisher Scientific, Pittsburgh, PA). The separated protein bands were transferred onto PVDF membranes (GE Healthcare Life Sciences, Marlborough, MA) and blotted against different antibodies, as indicated. The blots were scanned, and the band intensities were quantified using GelQuant.NET software provided by biochemlabsolutions.com. The relative mean intensity of target proteins was expressed after normalization to the intensity of glyceraldehyde-3-phosphate dehydrogenase bands.

DC50 | SMILES
> 100 nM | C[C@@H]1Cc2c(ccc3[nH]ncc23)[C@@H](c2c(F)cc(C3CCN(C(=O)[C@H]4CC[C@@H](N5Cc6cc7c(cc6C5)C(=O)N(C5CCC(=O)NC5=O)C7=O)CC4)CC3)cc2F)N1CC(F)F (stereo partly drawn) [Compound B8, 6-((1R,4s)-4-(4-(4-((6S,8R)-7-(2,2-difluoroethyl)-8-methyl-6,7,8,9-tetrahydro-3H-pyrazolo[4,3-f]isoquinolin-6-yl)-3,5-difluorophenyl)piperidine-1-carbonyl)cyclohexyl)-2-(2,6-dioxopiperidin-3-yl)-6,7-dihydropyrrolo[3,4-f]isoindole-1,3(2H,5H)-dione]
10 to 100 nM | C[C@@H]1Cc2c(ccc3[nH]ncc23)[C@@H](c2c(F)cc(N3CCC(CN4CCN5c6cc7c(cc6N(C)C[C@@H]5C4)C(=O)N(C4CCC(=O)NC4=O)C7)CC3)cc2F)N1CC(F)F (stereo partly drawn) [Compound B18, 3-((S)-3-((1-(4-((6S,8R)-7-(2,2-difluoroethyl)-8-methyl-6,7,8,9-tetrahydro-3H-pyrazolo[4,3-f]isoquinolin-6-yl)-3,5-difluorophenyl)piperidin-4-yl)methyl)-6-methyl-8-oxo-2,3,4,4a,5,6,8,10-octahydropyrazino[1,2-a]pyrrolo[3,4-g]quinoxalin-9(1H)-yl)piperidine-2,6-dione]
< 10 nM | C[C@@H]1Cc2c(ccc3[nH]ncc23)[C@@H](c2c(F)cc(N3CC4(CCN(C(=O)CN5Cc6cc7c(cc6C5)C(=O)N(C5CCC(=O)NC5=O)C7=O)CC4)C3)cc2F)N1CC(F)F (stereo partly drawn) [Compound B13, 6-(2-(2-(4-((6S,8R)-7-(2,2-difluoroethyl)-8-methyl-6,7,8,9-tetrahydro-3H-pyrazolo[4,3-f]isoquinolin-6-yl)-3,5-difluorophenyl)-2,7-diazaspiro[3.5]nonan-7-yl)-2-oxoethyl)-2-(2,6-dioxopiperidin-3-yl)-6,7-dihydropyrrolo[3,4-f]isoindole-1,3(2H,5H)-dione]
10 to 100 nM | C[C@@H]1Cc2c(ccc3[nH]ncc23)[C@@H](c2c(F)cc(N3CCC(CN4CCN(c5cc6c(cc5F)C(=O)N(C5CCC(=O)NC5=O)C6=O)CC4)CC3)cc2F)N1CC(F)F (stereo partly drawn) [Compound B66, 5-(4-((1-(4-((6S,8R)-7-(2,2-difluoroethyl)-8-methyl-6,7,8,9-tetrahydro-3H-pyrazolo[4,3-f]isoquinolin-6-yl)-3,5-difluorophenyl)piperidin-4-yl)mcthyl)pipcrazin-1-yl)-2-(2,6-dioxopiperidin-3-yl)-6-fluoroisoindoline-1,3-dione]
< 10 nM | C[C@@H]1Cc2c(ccc3[nH]ncc23)[C@@H](c2ccc(C3=CCC(C(=O)N4CCC(N5Cc6cc7c(cc6C5)C(=O)N(C5CCC(=O)NC5=O)C7=O)CC4)CC3)cn2)N1CC(F)(F)F (stereo partly drawn) [Compound B11, 2-(2,6-dioxopiperidin-3-yl)-6-(1-(4-(6-((6S,8R)-8-methyl-7-(2,2,2-trifluoroethyl)-6,7,8,9-tetrahydro-3H-pyrazolo[4,3-f]isoquinolin-6-yl)pyridin-3-yl)cyclohex-3-ene-1-carbonyl)piperidin-4-yl)-6,7-dihydropyrrolo[3,4-f]isoindole-1,3(2H,5H)-dione]
> 100 nM | C[C@@H]1Cc2c(ccc3[nH]ncc23)[C@@H](c2c(F)cc([C@H]3CC[C@H](C(=O)N4CC(CN5Cc6cc7c(cc6C5)C(=O)N(C5CCC(=O)NC5=O)C7=O)C4)CC3)cc2F)N1CC(F)F (stereo partly drawn) [Compound B3, 6-((1-((1S,4r)-4-(4-((6S,8R)-7-(2,2-difluoroethyl)-8-methyl-6,7,8,9-tetrahydro-3H-pyrazolo[4,3-f]isoquinolin-6-yl)-3,5-difluorophenyl)cyclohexane-1-carbonyl)azetidin-3-yl)methyl)-2-(2,6-dioxopiperidin-3-yl)-6,7-dihydropyrrolo[3,4-f]isoindole-1,3(2H,5H)-dione]
< 10 nM | C[C@@H]1Cc2c(ccc3[nH]ncc23)[C@@H](c2c(F)cc(N3CCC4(CC3)CN(C(=O)CN3Cc5cc6c(cc5C3)C(=O)N(C3CCC(=O)NC3=O)C6=O)C4)cc2F)N1CC(F)F (stereo partly drawn) [Compound B4, 6-(2-(7-(4-((6S,8R)-7-(2,2-difluoroethyl)-8-methyl-6,7,8,9-tetrahydro-3H-pyrazolo[4,3-f]isoquinolin-6-yl)-3,5-difluorophenyl)-2,7-diazaspiro[3.5]nonan-2-yl)-2-oxoethyl)-2-(2,6-dioxopiperidin-3-yl)-6,7-dihydropyrrolo[3,4-f]isoindole-1,3(2H,5H)-dione]
10 to 100 nM | C[C@@H]1Cc2c(ccc3[nH]ncc23)[C@@H](c2c(F)cc(N3CCC(CN4CCC(N5Cc6cc7c(cc6C5)C(=O)N(C5CCC(=O)NC5=O)C7)CC4)CC3)cc2F)N1CC(F)F (stereo partly drawn) [Compound B71, 3-(6-(1-((1-(4-((6S,8R)-7-(2,2-difluoroethyl)-8-methyl-6,7,8,9-tetrahydro-3H-pyrazolo[4,3-f]isoquinolin-6-yl)-3,5-difluorophenyl)piperidin-4-yl)methyl)piperidin-4-yl)-1-oxo-3,5,6,7-tetrahydropyrrolo[3,4-f]isoindol-2(1H)-yl)piperidine-2,6-dione]
10 to 100 nM | C[C@@H]1Cc2c(ccc3[nH]ncc23)[C@@H](c2c(F)cc(N3CCC4(CCN(CC(=O)N5Cc6cc7c(cc6C5)C(=O)N(C5CCC(=O)NC5=O)C7=O)CC4)CC3)cc2F)N1CC(F)F (stereo partly drawn) [Compound B5, 6-(2-(9-(4-((6S,8R)-7-(2,2-difluoroethyl)-8-methyl-6,7,8,9-tetrahydro-3H-pyrazolo[4,3-f]isoquinolin-6-yl)-3,5-difluorophenyl)-3,9-diazaspiro[5.5]undecan-3-yl)acetyl)-2-(2,6-dioxopiperidin-3-yl)-6,7-dihydropyrrolo[3,4-f]isoindole-1,3(2H,5H)-dione]
< 10 nM | C[C@@H]1Cc2c(ccc3[nH]ncc23)[C@@H](c2c(F)cc(N3CCC(CN4CCC(N5Cc6cc7c(cc6C5=O)CN(C5CCC(=O)NC5=O)C7=O)CC4)CC3)cc2F)N1CC(F)F (stereo partly drawn) [Compound B19, 2-(1-((1-(4-((6S,8R)-7-(2,2-difluoroethyl)-8-methyl-6,7,8,9-tetrahydro-3H-pyrazolo[4,3-f]isoquinolin-6-yl)-3,5-difluorophenyl)piperidin-4-yl)methyl)piperidin-4-yl)-6-(2,6-dioxopiperidin-3-yl)-2,3,6,7-tetrahydropyrrolo[3,4-f]isoindole-1,5-dione]
> 100 nM | C[C@@H]1Cc2c(ccc3[nH]ncc23)[C@@H](c2c(F)cc(N3CCC(CN4CCN5c6ccc7c(c6OC[C@@H]5C4)CN(C4CCC(=O)NC4=O)C7=O)CC3)cc2F)N1CC(F)F (stereo partly drawn) [Compound B105, 3-((S)-7-((1-(4-((6S,8R)-7-(2,2-difluoroethyl)-8-methyl-6,7,8,9-tetrahydro-3H-pyrazolo[4,3-f]isoquinolin-6-yl)-3,5-difluorophenyl)piperidin-4-yl)methyl)-1-oxo-1,3,5,5a,6,7,8,9-octahydro-2H-pyrazino[1′,2′:4,5][1,4]oxazino[2,3-e]isoindol-2-yl)piperidine-2,6-dione]
< 10 nM | C[C@@H]1Cc2c(ccc3[nH]ncc23)[C@@H](c2c(F)cc([C@H]3CC[C@@H](C(=O)N4CCC(N5Cc6cc7c(cc6C5)C(=O)N(C5CCC(=O)NC5=O)C7=O)CC4)CC3)cc2F)N1CC(F)F (stereo partly drawn) [Compound B1, 6-(1-((1R,4s)-4-(4-((6S,8R)-7-(2,2-difluoroethyl)-8-methyl-6,7,8,9-tetrahydro-3H-pyrazolo[4,3-f]isoquinolin-6-yl)-3,5-difluorophenyl)cyclohexane-1-carbonyl)piperidin-4-yl)-2-(2,6-dioxopiperidin-3-yl)-6,7-dihydropyrrolo[3,4-f]isoindole-1,3(2H,5H)-dione]
10 to 100 nM | C[C@@H]1Cc2c(ccc3[nH]ncc23)[C@@H](c2c(F)cc(N3CCC(CN4CCC(N5Cc6cc7c(cc6C5)C(=O)N(C5CCC(=O)NC5=O)C7=O)CC4)CC3)cc2F)N1CC(F)F (stereo partly drawn) [Compound B70, 6-(1-((1-(4-((6S,8R)-7-(2,2-difluoroethyl)-8-methyl-6,7,8,9-tetrahydro-3H-pyrazolo[4,3-f]isoquinolin-6-yl)-3,5-difluorophenyl)piperidin-4-yl)methyl)piperidin-4-yl)-2-(2,6-dioxopiperidin-3-yl)-6,7-dihydropyrrolo[3,4-f]isoindole-1,3(2H,5H)-dione]
